Like-named read-outs stand apart in the source and are kept apart here.

For four molecules, IC50 results are on record in patent EP4755892A1, “KINESIN KIF18A INHIBITOR AND USE THEREOF” (Shanghai Apeiron Therapeutics Company Limited, priority 2023, dated 2025).

For test [1], the target named is T1, Human KIF18A (amino acid sequence 1-417) (Homo sapiens, UniProt Q8NI77).
T1 construct: purchased Viva Biotech (Shanghai) Ltd
T1 sequence (Q8NI77 1-417): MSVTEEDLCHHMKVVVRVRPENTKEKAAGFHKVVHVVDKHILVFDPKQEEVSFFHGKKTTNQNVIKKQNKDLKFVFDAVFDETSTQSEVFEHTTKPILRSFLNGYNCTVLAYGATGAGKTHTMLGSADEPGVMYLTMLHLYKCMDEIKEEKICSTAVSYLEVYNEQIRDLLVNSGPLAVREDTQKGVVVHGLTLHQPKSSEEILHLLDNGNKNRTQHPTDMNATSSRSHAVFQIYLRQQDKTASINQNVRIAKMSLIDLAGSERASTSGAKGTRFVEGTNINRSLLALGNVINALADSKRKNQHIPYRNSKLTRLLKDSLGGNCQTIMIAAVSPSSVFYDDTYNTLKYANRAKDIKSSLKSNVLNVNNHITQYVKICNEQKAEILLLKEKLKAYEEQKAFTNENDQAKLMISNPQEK
Briefly: Enzymatic Activity Test (ADP-Glo, microtubule-stimulated KIF18A ATPase). Format: biochemical. Conditions: 60 µg/mL microtubules, 25 µM ATP, 2.5 nM KIF18A protein, 120 min at ambient temperature, chemiluminescence; read-out: KIF 18A IC50. (In general: ADP-Glo turns the ADP formed in a reaction into a luminescent signal.)

The next test relates to OVCAR3 cells. Briefly: Cell Proliferation Activity Test (CyQUANT Direct), OVCAR3. It counts as cell-based. The following applies: compound 0-10 µM, 3 days, 0.2% DMSO, CyQUANT fluorescence, read-out: OVCAR-3 _IC50_nM.
In the next test the test system is HT29 cells. Briefly: CyQuant Cell Proliferation Activity Test, HT29. It counts as cell-based. Conditions: HT29 cells 2000 per well, initial concentration 3000 nM, 3-fold dilution, 3 days, 0.2% DMSO, read-out: HT29_IC50 _nM.

In the case of `Cc1cc2nc(n1)N1CCC(F)(F)C(C=CCC3CCN(CC3)c3cc(NS(=O)(=O)CCO)ccc3C(=O)N2)C1` (stereo not drawn) [Example 18, N-(1^4,1^4-difluoro-2^6-methyl-4-oxo-3-aza-2(2,4)-pyrimidin-1(1,3),6(1,4)-dipiperidin-5(1,2)-benzeneheterocyclonon-8-en-5^4-yl)-2-hydroxyethane-1-sulfonamide], the results for the IC50 (in test [1]; in the test with OVCAR3 cells; with HT29 cells) were 94 nM, 31 nM and 34 nM, respectively.
For the molecule `O=C1Nc2cccc(c2)S(=O)(=O)NCCCCC2CCN(CC2)c2cc(NS(=O)(=O)CCO)ccc21` [Example 14, N-(6,6-dioxo-3-oxo-6-thia-1(1,4)-piperidin-2(1,2),5(1,3)-diphenylheterocycloundecane-2^5-yl)-2-hydroxy-1-ethanesulfonamide], the IC50 in test [1] was found to be 21 nM; in the test on OVCAR3 cells (Homo sapiens, OVCAR-3, 72 h), 85 nM; in the test with HT29 cells (Homo sapiens, HT-29, 72 h) it was 152 nM.
For `Cc1cc2nc(n1)N1CCCC(C=CCC3CCN(CC3)c3cc(NS(=O)(=O)CCO)ccc3C(=O)N2)C1` (stereo not drawn) [Example 1, 2-Hydroxy-N-(2^6-methyl-4-oxo-3-aza-2(2,4)-pyrimidin-1(1,3),6(1,4)-dipiperidin-5 (1,2)-benzeneheterocyclonon-8-en-5^4-yl)ethane-1-sulfonamide], the IC50 was 62 nM in test [1], 14 nM with OVCAR3 cells and 17 nM with HT29 cells.
In the case of `Cc1cc2nc(n1)N1CCC(F)(F)C(=CCCC3CCN(CC3)c3cc(NS(=O)(=O)CCO)ccc3C(=O)N2)C1` [Example 21, N-(1^4,1^4-difluoro-2^6-methyl-4-oxo-3-aza-2(2,4)-pyrimidin-1(1,3),6(1,4)-dipiperidin-5(1,2)-benzeneheterocyclonon-9-en-5^4-yl)-2-hydroxyethane-1-sulfonamide], the IC50 was 305 nM in test [1]; 744 nM with OVCAR3 cells (Homo sapiens, OVCAR-3, 72 h); 703 nM in the test with HT29 cells (Homo sapiens, HT-29, 72 h).
